Measurements published in ChEMBL document CHEMBL4732143 (Eur J Med Chem, 2021).

Columns and labels:
[1] = target: T1, Sphingosine kinase 2 (Homo sapiens) (UniProt Q9NRA0); assay: Inhibition of recombinant human Sphk2 expressed in baculovirus infected Sf9 insect cells assessed as residual activity at 0.3 uM using d-erythro-sphingosine as substrate measured after 20 mins in presence of [gamma-32P]ATP by liquid scintillation counting analysis relative to control
T1 sequence (whole entry): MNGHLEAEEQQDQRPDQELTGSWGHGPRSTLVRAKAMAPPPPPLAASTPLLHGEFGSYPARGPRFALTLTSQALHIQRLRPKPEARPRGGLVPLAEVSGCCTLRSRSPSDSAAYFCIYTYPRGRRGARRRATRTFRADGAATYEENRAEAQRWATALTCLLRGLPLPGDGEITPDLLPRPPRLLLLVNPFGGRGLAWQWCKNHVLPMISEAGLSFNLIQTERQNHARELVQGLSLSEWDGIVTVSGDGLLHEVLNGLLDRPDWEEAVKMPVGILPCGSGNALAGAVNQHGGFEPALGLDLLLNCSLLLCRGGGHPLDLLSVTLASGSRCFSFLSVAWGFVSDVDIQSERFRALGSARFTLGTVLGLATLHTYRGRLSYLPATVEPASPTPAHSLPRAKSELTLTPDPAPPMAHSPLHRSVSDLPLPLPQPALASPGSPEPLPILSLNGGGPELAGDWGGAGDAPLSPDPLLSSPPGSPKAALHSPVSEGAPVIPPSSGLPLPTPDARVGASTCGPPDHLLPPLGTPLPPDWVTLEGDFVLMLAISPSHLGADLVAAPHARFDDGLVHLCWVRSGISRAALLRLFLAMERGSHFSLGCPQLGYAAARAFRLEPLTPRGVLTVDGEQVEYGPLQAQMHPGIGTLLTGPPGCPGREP

[2] = target: T2, Sphingosine kinase 2 (Homo sapiens, UniProt Q9NRA0); assay: Inhibition of recombinant human Sphk2 expressed in baculovirus infected Sf9 insect cells using d-erythro-sphingosine as substrate measured after 20 mins in presence of [gamma-32P]ATP by liquid scintillation counting analysis
T2 sequence (Q9NRA0 whole entry): T1 sequence (whole entry)

[3] = target: T1, Sphingosine kinase 2 (Homo sapiens); assay: Inhibition of Sphk2 in human U-937 cells using FTY720 as substrate measured after 2 hrs by LC-MS analysis; assay type: cell-based; details: dose 0.1-1 µM
[4] = target: T1, Sphingosine kinase 2 (Homo sapiens); assay: Inhibition of recombinant human Sphk2 expressed in yeast strain KYA1 assessed as increase in yeast growth measured after 24 hrs

Row | SMILES | Activity [1] | other results
1 | CCCCCCCn1ccc2cc(-c3noc([C@@H]4CCCN4C(=N)N)n3)ccc21 | 93% | 
2 | CCCCCCCCn1cc(-c2noc([C@@H]3CCCN3C(=N)N)n2)c2ccccc21 | 73% | 
3 | CCCCCCCCCn1cc(-c2noc(C[C@@H]3CCCN3C(=N)N)n2)c2ccccc21 | 98% | 
4 | CCCCCCCn1cc(-c2noc([C@@H]3CCCN3C(=N)N)n2)c2ccccc21 | 96% | 
5 | CCCCCCCCCCn1cc(-c2noc([C@@H]3CCCN3C(=N)N)n2)c2ccccc21 | 47% | Ki [2]: 300 nM
6 | CCCCCCCCCCCn1cc(-c2noc([C@@H]3CCCN3C(=N)N)n2)c2ccccc21 | 79% | 
7 | CCCCCCCCCCn1ccc2cc(-c3noc([C@@H]4CCCN4C(=N)N)n3)ccc21 | 31% | Ki [2]: 120 nM
8 | CCCCCCCCCn1cc(-c2noc([C@@H]3CCCN3C(=N)N)n2)c2ccccc21 | 59% | 
9 | CCCCCCCCCCCCn1cc(-c2noc([C@@H]3CCCN3C(=N)N)n2)c2ccccc21 | 46% | Ki [2]: 290 nM

More lines, main results first:

Row | Activity [1] | SMILES | other results
10 | 87% | CCCCCCCCn1ccc2cc(-c3noc([C@@H]4CCCN4C(=N)N)n3)ccc21 | 
11 | 68% | CCCCCCCCCn1ccc2c(-c3noc([C@@H]4CCCN4C(=N)N)n3)cccc21 | 
12 | 93% | CCCCCCCCn1ccc2ccc(-c3noc([C@@H]4CCCN4C(=N)N)n3)cc21 | 
13 | 95% | CCCCOc1ccc2cc(-c3noc([C@@H]4CCCN4C(=N)N)n3)ccc2c1 | Ki [2]: 980 nM
14 | 64% | CCCCCCCCCCn1ccc2c(-c3noc([C@@H]4CCCN4C(=N)N)n3)cccc21 | 
15 | 79% | CCCCCCCCCn1ccc2ccc(-c3noc([C@@H]4CCCN4C(=N)N)n3)cc21 | 
16 | 84% | CCCCCCCCn1ccc2c(-c3noc([C@@H]4CCCN4C(=N)N)n3)cccc21 | 
17 | 25% | CCCCCCCCCn1ccc2cc(-c3noc([C@@H]4CCCN4C(=N)N)n3)ccc21 | inhibition [3]: Dose-dependent effect; inhibition [4]: Dose-dependent effect; Ki [2]: 90 nM
18 | 68% | CCCCCCCCCCn1ccc2ccc(-c3noc([C@@H]4CCCN4C(=N)N)n3)cc21 | 
19 | 89% | CCCCCCCn1ccc2c(-c3noc([C@@H]4CCCN4C(=N)N)n3)cccc21 | 
20 | 103% | CCCCCCCn1ccc2ccc(-c3noc([C@@H]4CCCN4C(=N)N)n3)cc21 | 
21 | 72% | CCCCCCn1ccc2cc(-c3noc([C@@H]4CCCN4C(=N)N)n3)ccc21 | 
